Where “and” joins values, the source holds several entries; their conditions need not be identical. Equal entries are not always repeated. Where two headings read alike, the source gives them in different places. Where only a bound is given, the exact number is not on record here.

This assay deals with T1, human carbonic anhydrase II (Homo sapiens, UniProt P00918).
T1 construct: purchased Sigma C-6165
The experiment in a line: Carbonic anhydrase II inhibition assay (p-nitrophenol acetate, absorbance at 405 nm). The assay is classed as biochemical. As to the method: Final concentrations of each inhibitor ranged from 1 picomolar to 1 micromolar. Control samples that included either no inhibitor or no enzyme were also performed.
The admixture of substrate and enzyme initiates the enzyme reaction. […] The inhibition at each inhibitor concentration was measured in triplicate. The IC50 value was then derived using the GraphPad Prism curve fitting software. […] The compound number listed in Table 2 and 3 corresponds with the same compound number detailed in Table 1.

The mark [1] stands for this setting: Table 2, single values of the N determinations, read-out: CA Assay IC50 (μM), individual determinations in parentheses.
Setting [2] is: read-out: IC50 for inhibition of CA II activity.
The mark [3] stands for this setting: Table 2, overall value of N determinations, read-out: CA Assay IC50 (μM) and concentration of inhibitor added.
The mark [4] stands for this setting: Table 3, mean, read-out: Mean IC50.

For the molecule `Cc1ccc(-c2cc(C(F)(F)F)n(-c3ccc(S(N)(=O)=O)cc3)n2)cc1` [Compound 1], the IC50 under setting [1] is 0.015 µM and 0.021 µM and 0.004 µM; the IC50 under setting [2] worked out at 0.01 µM.
Regarding `CCCCOc1ccc(-c2cc(C(F)(F)F)nn2-c2ccc(S(N)(=O)=O)cc2)cc1` [Compound 2], the IC50 reads like this: under setting [3], 0.04 µM; under setting [1], 0.03 µM and 0.04 µM.
For the molecule `NS(=O)(=O)c1ccc(-n2nc(-c3ccccc3)cc2-c2ccccc2)cc1` [Compound 3], the IC50 under setting [3] turned out to be 0.04 µM.
The same measure, in the same setting: then `CC(=O)SCc1cc(-c2ccc(Cl)cc2)n(-c2ccc(S(N)(=O)=O)cc2)n1` [Compound 4], with 0.09 µM; and `C=C1N[C@@H]2[C@@H](CS[C@@H]2CCCCC(=O)NCCOCCOCCNC(=O)CSCc2cc(-c3ccc(Cl)cc3)n(-c3ccc(S(N)(=O)=O)cc3)n2)N1` [Compound 6], with 0.18 µM.
For the molecule `NC(=O)c1nn(-c2ccc(S(N)(=O)=O)cc2)c2c1CCc1cnccc1-2` [Compound 8], the IC50 under setting [4] stood at 0.195 µM.
As to `COC(=O)C1c2ccccc2-c2c1cnn2-c1ccc(S(N)(=O)=O)cc1` (stereo not shown) [Compound 9], under setting [4], the IC50 was 0.0334 µM.
For `NC(=O)c1nn(-c2ccc(S(N)(=O)=O)cc2)c2c1C[S+]([O-])c1ccccc1-2` (stereo not shown) [Compound 12], under setting [4], the IC50 was 0.465 µM.
Same read-out and setting: to `CC1CCc2c(c(C(=O)O)nn2-c2ccc(S(N)(=O)=O)cc2)C1` (stereo not shown) [Compound 13] belongs 0.07 µM; to `NC(=O)c1nn(-c2ccc(S(N)(=O)=O)cc2)c2c1CNc1ccccc1-2` [Compound 14], 0.101 µM.
As to `CCOC(=O)c1nn(-c2ccc(S(N)(=O)=O)cc2)c2c1CCC=C2` [Compound 15], the IC50 under setting [4] was 0.0056 µM.
Same read-out and setting: to `CS(=O)(=O)Nc1cccc(-c2cc(C(N)=O)nn2-c2ccc(S(N)(=O)=O)cc2)c1` [Compound 16] belongs 0.0338 µM; to `CN(C)/C=N/c1cccc(-c2cc(C(N)=O)nn2-c2ccc(S(N)(=O)=O)cc2)c1` [Compound 17], 0.181 µM.
Still for that read-out and setting: then `NS(=O)(=O)c1ccc(-n2ncc3c2-c2ccncc2CC3)cc1` [Compound 18], with 0.251 µM.
The same measure, in the same setting: then `CNC(=O)c1nn(-c2ccc(S(N)(=O)=O)cc2)c2c1CCc1[nH]ncc1-2` [Compound 19], with 0.0777 µM; and `COCC(=O)Nc1ccc2c(c1)-c1c(c(C(N)=O)nn1-c1ccc(S(N)(=O)=O)cc1)CC2` [Compound 20], with 0.435 µM; and `NC(=O)c1nn(-c2ccc(S(N)(=O)=O)cc2)c2c1CCc1cn(CCO)nc1-2` [Compound 21], with 1.22 µM.
For the molecule `NS(=O)(=O)c1ccc(-n2nc(C(=O)O)c3c2-c2cn[nH]c2CC3)cc1` [Compound 22], the IC50 under setting [4] came out at 1.24 µM.
Still for that read-out and setting: to `CCOc1cccc2c(C(N)=O)nn(-c3ccc(S(N)(=O)=O)cc3)c12` [Compound 23] belongs 0.202 µM.
For the molecule `NC(=O)c1nn(-c2ccc(S(N)(=O)=O)cc2)c2c1CCc1cnc(N)nc1-2` [Compound 24], under setting [4], the IC50 came to 0.06 µM.
Take `C#CCN(CC#C)S(=O)(=O)c1ccc(-n2nc(C(N)=O)c3c2-c2nc(N)ncc2CC3)cc1` [Compound 25]: under setting [4], the IC50 was determined as 2.91 µM.
Same read-out and setting: then `NC(=O)c1cc(-c2ccco2)n(-c2ccc(S(N)(=O)=O)cc2)n1` [Compound 26], with 0.0794 µM.
The same measure, in the same setting: to `NC(=O)c1cc(-c2ccncc2)n(-c2ccc(S(N)(=O)=O)cc2)n1` [Compound 27] belongs 0.418 µM; to `NC(=O)c1cc(-c2cccnc2)n(-c2ccc(S(N)(=O)=O)cc2)n1` [Compound 28], 0.523 µM.
`NC(=O)c1cc(-c2ccccn2)n(-c2ccc(S(N)(=O)=O)cc2)n1` [Compound 29]: the IC50 under setting [4] amounted to 0.127 µM.
Still for that read-out and setting: then `NC(=O)c1nn(-c2ccc(S(N)(=O)=O)cc2)c2c1CCC=C2` [Compound 30], with 0.0219 µM.
Still for that read-out and setting: to `COC(=O)c1cc(-c2ccc(OC)cc2)n(-c2ccc(S(N)(=O)=O)cc2)n1` [Compound 31] belongs 0.239 µM; to `COC(=O)c1cc(-c2ccccc2)n(-c2ccc(S(N)(=O)=O)cc2)n1` [Compound 32], 0.182 µM; to `NS(=O)(=O)c1ccc(-n2nc(C(F)(F)F)cc2-c2cccnc2)cc1` [Compound 33], 0.0386 µM.
`COC(C)Cc1cc(C(F)F)nn1-c1ccc(S(N)(=O)=O)cc1` (stereo not shown) [Compound 34]: the IC50 under setting [4] stood at 0.0184 µM.
As to `C/C=C/c1cc(C(F)F)nn1-c1ccc(S(N)(=O)=O)cc1` [Compound 35], the IC50 under setting [4] came out at 0.018 µM.
The same measure, in the same setting: to `COC(C)(C)Cc1cc(C(F)F)nn1-c1ccc(S(N)(=O)=O)cc1` [Compound 36] belongs 0.0463 µM.
Same read-out and setting: then `NS(=O)(=O)c1ccc(-n2nc(C(=O)O)cc2-c2ccccc2)cc1` [Compound 37], with 0.599 µM; and `NC(=O)c1cc(-c2ccccc2)n(-c2ccc(S(N)(=O)=O)cc2)n1` [Compound 38], with 0.21 µM; and `COc1ccc(-c2cc(C(N)=O)nn2-c2ccc(S(N)(=O)=O)cc2)cc1` [Compound 39], with 0.258 µM.
Same read-out and setting: to `CNC(=O)c1cc(-c2ccc(OC)cc2)n(-c2ccc(S(N)(=O)=O)cc2)n1` [Compound 41] belongs 0.334 µM; to `COc1ccc(-c2cc(C(=O)O)nn2-c2ccc(S(N)(=O)=O)cc2)cc1` [Compound 42], 4.9 µM.
Take `COc1ccc(-c2ccnn2-c2ccc(S(N)(=O)=O)cc2)cc1` [Compound 43]: the IC50 under setting [4] turned out to be 0.203 µM.
The same measure, in the same setting: to `NS(=O)(=O)c1ccc(-n2nc(C(=O)NCC(=O)O)cc2-c2ccc(Cl)cc2)cc1` [Compound 44] belongs 0.08 µM; to `NS(=O)(=O)c1ccc(-n2nc(C(F)(F)F)c3c2-c2ccccc2[S+]([O-])C3)cc1` (stereo not shown) [Compound 45], 0.0431 µM.
Turning to `COc1ccc2c(c1F)C[S+]([O-])c1c(C(F)(F)F)nn(-c3ccc(S(N)(=O)=O)cc3)c1-2` (stereo not shown) [Compound 46], the IC50 under setting [4] is 0.06 µM.
`NS(=O)(=O)c1ccc(-n2nc(CO)cc2-c2ccc(O)cc2)cc1` [Compound 47]: the IC50 under setting [4] worked out at 0.0671 µM.
Take `NS(=O)(=O)c1ccc(-n2nc(C(F)(F)F)cc2O)cc1` [Compound 48]: under setting [4], the IC50 was 0.0812 µM.
On to `COc1cc(C(F)(F)F)nn1-c1ccc(S(N)(=O)=O)cc1` [Compound 49], for which the IC50 under setting [4] came to 0.0087 µM.
Regarding `CC(C)Oc1cc(C(F)(F)F)nn1-c1ccc(S(N)(=O)=O)cc1` [Compound 50], the IC50 under setting [4] came out at 0.0171 µM.
Turning to `NC(=O)c1nn(-c2ccc(S(N)(=O)=O)cc2)c2c1CSCC2` [Compound 51], the IC50 under setting [4] stood at 0.0356 µM.
With `NS(=O)(=O)c1ccc(-n2nc(C(F)(F)F)cc2C(=O)C(=O)c2ccccc2)cc1` [Compound 53], the IC50 under setting [4] came out at 0.0105 µM.
Still for that read-out and setting: then `NS(=O)(=O)c1ccc(-n2ncc(C(F)(F)F)c2-c2ccccc2)cc1` [Compound 56], with 0.109 µM; and `NS(=O)(=O)c1ccc(-n2nc(C(F)(F)F)cc2C2CCNCC2)cc1` [Compound 57], with 0.139 µM.
Still for that read-out and setting: to `CNC(=O)c1nn(-c2ccc(S(N)(=O)=O)cc2)cc1-c1ccccc1` [Compound 58] belongs 0.389 µM; to `Cc1ccc(-c2cc(C(F)(F)F)n(-c3ccc(S(N)(=O)=O)cc3)n2)cc1` [Compound 63], 0.0035 µM; to `NS(=O)(=O)c1ccc(-n2nc(C(F)(F)F)cc2O)cc1` [Compound 65], 0.0812 µM.
With `CS(=O)(=O)c1ccc(-n2nccc2-c2ccc(F)cc2)cc1` [IX, reference compound], the IC50 under setting [3] was more than 100 µM.
As to `CS(=O)(=O)c1ccc(C2=C(c3ccccc3)C(=O)OC2)cc1` [VIII, Rofecoxib, reference compound], the IC50 was more than 100 µM under setting [3] and more than 100 µM under setting [2].
As for `O=C(c1ccc(-n2nc(C(F)(F)F)cc2-c2ccc(F)cc2)cc1)C(F)(F)F` [X, reference compound], the IC50 under setting [3] is more than 100 µM.
